Assay results: the NIST ThermoML archive (doi:10.1016/j.jct.2016.09.022)

Key:
[1] = Liquid; for speed of sound: Frequency=1.5 MHz, Single path-length method; for mass density: 298.15 K, 101.33 kPa, Vibrating tube method
[2] = refractive index (Na D-line) (dimensionless); settings: 298.15 K; 101.33 kPa; Liquid; Standard Abbe refractometry

CCO [ethanol]
speed of sound [m/s], [1]
Settings	283.15 K	293.15 K	303.15 K	313.15 K	323.15 K	333.15 K	343.15 K
100 kPa	1198.8	1163.8	1129.3	1094.7	1060.4	1027	992.92
5100 kPa	1227.7	1193.5	1159.8	1127.7	1094.5	1062.7	1030.2
10100 kPa	1255.7	1222.5	1189.8	1157.4	1126.5	1096.3	1065.8
20100 kPa	1306.5	1275.6	1245	1214.7	1185.2	1156.9	1129
30100 kPa	1353.1	1323.7	1295	1266.5	1238.8	1212.1	1185.8
40100 kPa	1397	1368.7	1340.6	1313.5	1287.5	1262.3	1237.5
50100 kPa	1437.9	1410.7	1384.2	1358.2	1332.4	1310.5	1284.9
60100 kPa	1476.1	1449.9	1424.6	1399.1	1374.8	1351.2	1328.8
70100 kPa	1512.5	1486.8	1462.7	1438.4	1414.7	1391.9	1370.2
80100 kPa	1547.2	1522.1	1498.1	1475.7	1452	1429.6	1409.5
90100 kPa	1580.2	1555.7	1532.5	1510.1	1487.5	1466.1	1446.3
95100 kPa	1596.1	1571.8	1549.3	1526.4	1504.5	1483.5	1464.1

Settings	mass density [kg/m3]	refractive index
[1]	785.1	–
[2]	–	1.3593

CCCCCCC [heptane]
speed of sound [m/s], [1]
Settings	283.15 K	293.15 K	303.15 K	313.15 K	323.15 K	333.15 K	343.15 K
100 kPa	1197.2	1153.9	1111.4	1068.8	1025.9	983.91	942.89
5100 kPa	1231.5	1189.6	1148.8	1108.9	1068.6	1028.8	989.64
10100 kPa	1263.8	1223.4	1184.1	1145.2	1107.3	1069.8	1032.5
20100 kPa	1323.2	1284.8	1248.7	1212.3	1176.7	1141.9	1108.4
30100 kPa	1376.7	1340.1	1306.4	1272.1	1239	1206.4	1174.6
40100 kPa	1426.3	1391.5	1359.2	1326.3	1295.3	1264.6	1234.9
50100 kPa	1472.5	1439	1408.5	1377.4	1346.7	1317.4	1289.3
60100 kPa	1515.6	1483.3	1454.5	1424.7	1395.2	1366.6	1339.5
70100 kPa	1556.1	1525.3	1497.4	1468.7	1440.1	1412.9	1387
80100 kPa	1593.8	1564.9	1538.3	1510.3	1482.6	1456	1431.2
90100 kPa	1629.7	1602.3	1577	1549.8	1522.8	1496.7	1472.7
95100 kPa	1646.4	1620.6	1595	1568.8	1542.2	1516.4	1492.7

Settings	mass density [kg/m3]	refractive index
[1]	679.5	–
[2]	–	1.3852

CCCCCC [hexane]
speed of sound [m/s], [1]
Settings	283.15 K	293.15 K	303.15 K	313.15 K	323.15 K	333.15 K	343.15 K
100 kPa	1147.3	1102.8	1056.2	1011.6	966.77	923.14	–
105 kPa	–	–	–	–	–	–	877.65
5100 kPa	1183.8	1141.9	1097.9	1055.9	1013.6	972.45	931.79
10100 kPa	1218.6	1177.2	1135.8	1096.4	1056.7	1017.2	977.66
20100 kPa	1283.2	1243.4	1204.4	1167.8	1131.8	1096.3	1060.6
30100 kPa	1339.6	1302.4	1266.5	1231.8	1197.6	1164	1131.3
40100 kPa	1391.9	1356	1321.9	1289.3	1256.9	1225.4	1194.6
50100 kPa	1440.2	1405.9	1373.7	1341.4	1311	1280.6	1252.1
60100 kPa	1484.8	1452.3	1421.1	1390.3	1361.3	1331.7	1304.4
70100 kPa	1526.9	1495.6	1464.4	1435.6	1408.2	1380.5	1354.1
80100 kPa	1566.5	1536.7	1508.3	1478.3	1451.5	1425.6	1400.1
90100 kPa	1604.6	1575.4	1548	1519.6	1493	1467.5	1442.2
95100 kPa	1622.6	1594.1	1567.1	1539.5	1512.6	1487.5	1463.4

Settings	mass density [kg/m3]	refractive index
[1]	654.9	–
[2]	–	1.3723

CO [methanol]
speed of sound [m/s], [1]
Settings	283.15 K	293.15 K	303.15 K	313.15 K	323.15 K	333.15 K	343.15 K
100 kPa	1154.3	1120.6	1087.4	1054.5	1022	989.77	–
120 kPa	–	–	–	–	–	–	957.61
5100 kPa	1182	1149.2	1118	1087	1055.8	1025.2	994.42
10100 kPa	1209.3	1176.2	1146.4	1116.8	1087.2	1058	1028.6
20100 kPa	1258.7	1227.4	1199.4	1171.1	1143.8	1117.2	1090.6
30100 kPa	1303.6	1274.2	1248.1	1221.5	1195.3	1169.8	1144.9
40100 kPa	1345.2	1316.8	1292.5	1267.3	1242.7	1218.6	1194.9
50100 kPa	1384.4	1357	1333.7	1309.7	1286.3	1263.6	1241
60100 kPa	1421	1394.9	1372.8	1349.4	1326.6	1304.8	1283.5
70100 kPa	1456.2	1430.8	1409.7	1387.1	1365	1343.6	1323.1
80100 kPa	1489.1	1464.7	1444.6	1422.7	1401.3	1380.8	1361.1
90100 kPa	1520.7	1496.7	1477.7	1456.3	1435.9	1415.9	1396.8
95100 kPa	1536	1512.3	1493.8	1472.6	1452.3	1432.7	1414

Settings	mass density [kg/m3]	refractive index
[1]	786.5	–
[2]	–	1.3263
